The values that follow come from patent US20130116219A1, “ANTIMICROBIAL CARBOLINE COMPOUNDS” (ALCON RESEARCH, LTD., priority 2011, published 2013).

Molecules are shown by their SMILES. In brackets after ≈: the same amount, converted by molar mass.

For one experiment, the system named is Ad7a. Put plainly: Plaque reduction assay in A549 cells, Ad7a. The format is cell-based. As to conditions: unidentified adenovirus, 168 h, approximately 7 d, read-out: Adenovirus Serotype EC50 (μg/mL) Ad7a. The protocol:
(§1) Compounds of the present invention were tested for potency against AdV serotypes Ad3, Ad4, Ad5, Ad7a, Ad8, Ad19, and Ad37 in a plaque reduction assay, a cell-based assay of AdV replication. Ad8, Ad19, and Ad37 are the serotypes most commonly associated with epidemic keratoconjunctivitis (EKC). Ad3, Ad4, and Ad7a are serotypes most commonly associated with follicular conjunctivitis and serotype Ad5 can replicate in the NZW rabbit model of adenoviral ocular keratitis. Ad3, Ad4, Ad5, Ad7a, Ad8, and Ad19 were recovered at the Charles T. Campbell Ophthalmic Microbiology Laboratory from patients presenting with typical adenoviral ocular disease. No clinical isolates of Ad37 were available, so the ATCC (American Type Culture Collection, Manassas, Va.) reference strain of Ad37 was used.
(§2) EC50 values (μg/ml) for inhibition of adenoviral replication were determined by plaque reduction assay. Briefly, cultured A549 cells were inoculated with approximately 100 pfu of the indicated adenovirus serotype. Inoculated cells were overlaid with methylcellulose medium containing Compound 2 at 100, 10, 1, 0.1, 0.01, and 0.001 μg/ml, and incubated at 37° C./5% CO2 for approximately 7 d. Plates were stained with gentian violet, and plaques were counted in a 25× dissecting microscope. IC50, the concentration that inhibited plaque formation by 50%, was estimated from plots of mean plaque count vs. concentration.
(In general: Plaques are areas of infected cells; plaque reduction assays count them against a control.)

In the next experiment the test system is Ad8. Description: Plaque reduction assay in A549 cells, Ad8. The format is cell-based. To be noted: unidentified adenovirus, A549, 168 h, read-out: Adenovirus Serotype EC50 (μg/mL) Ad8. The protocol:
as §1, §2

The next experiment concerns Ad37. Description: Plaque reduction assay in A549 cells, Ad37. Type of experiment: cell-based. To be noted: unidentified adenovirus, 168 h, approximately 7 d, ATCC reference strain, read-out: Adenovirus Serotype EC50 (μg/mL) Ad37. The protocol: as §1, §2
For another experiment, the system named is Ad4. Description: Plaque reduction assay in A549 cells, Ad4. The format is cell-based. To be noted: unidentified adenovirus, 168 h, approximately 7 d, read-out: Adenovirus Serotype EC50 (μg/mL) Ad4. As to the method: as §1, §2
The test system of experiment [1] is Ad5. Description: Ad5 genome replication assay (cell-based QPCR) in A549 cells. As to conditions: Human adenovirus sp., A549, 72 h, read-out: Ad5 qPCR EC50 (μM). The protocol: Compounds of the present invention were tested for potency against Ad5 in an Ad5 genome replication assay, a cell-based QPCR assay of Ad5 genome replication in A549 cells, a human lung carcinoma cell line. Serotype of human Ad5, used in this replication assay can also replicate in a NZW rabbit model of adenoviral ocular keratitis.
EC50 values (μM) for inhibition of adenoviral replication were determined by QPCR. Briefly, 10,000 cultured A549 cells were inoculated with 25,000 pfu/well for 3 hrs in 2% FBS F12-K A549 culture media. Following inoculation, A549 cells were treated with log unit dilutions of compound of Formula I (˜10 μM thru˜10 pM) in 10% FBS F12-K culture media with 0.3% DMSO for an additional 3 days. Cell viability was assessed with Alamar Blue (10 μl/well for 2 hrs; fluorescence Ex353; Em595 nm). Plates were washed 3 times with 125 μl PBS, cell lysates were prepared for QPCR analysis using Cells to SNP kit (Life Technologies). Ad5 genome levels per cell were determined with RNaseP and Ad5 hexon Taqman Assays (Life Technologies). EC50, the concentration that inhibited Ad5 genome replication formation by 50%, was estimated from plots of Ad5 genomes/cell vs. compound concentration.
(In qPCR the cycle at which signal appears reflects the starting amount.)

For a further experiment, the system named is Ad3. Put plainly: Plaque reduction assay in A549 cells, Ad3. Type of experiment: cell-based. To be noted: unidentified adenovirus, 168 h, approximately 7 d, read-out: Adenovirus Serotype EC50 (μg/mL) Ad3. As to the method: as §1, §2
In experiment [2] the test system is Ad5. Description: Plaque reduction assay in A549 cells, Ad5. The format is cell-based. To be noted: unidentified adenovirus, A549, 168 h, read-out: Adenovirus Serotype EC50 (μg/mL) Ad5. The protocol: as §1, §2
The test system of a further experiment is Ad19. Put plainly: Plaque reduction assay in A549 cells, Ad19. The format is cell-based. To be noted: unidentified adenovirus, 168 h, approximately 7 d, read-out: Adenovirus Serotype EC50 (μg/mL) Ad19. As to the method:
as §1, §2

For experiment [3], the system named is human papillomavirus (HPV). To be noted: Harvey et al., Antiviral Res. 82:1-11, 2009; read-out: EC50, inhibition of replication of human papillomavirus (HPV); cited from earlier work.
The next experiment concerns Epstein-Barr virus (EBV). As to conditions: Harvey et al., Antiviral Res. 82:1-11, 2009; read-out: EC50, inhibition of replication of Epstein-Barr virus (EBV); cited from earlier work.
Another experiment deals with AdV serotype 5 (Ad5). As to conditions: Harvey et al., Antiviral Res. 82:1-11, 2009; read-out: EC50, inhibition of replication of AdV serotype 5 (Ad5); cited from earlier work.
Another experiment relates to polyoma virus SV40. To be noted: Harvey et al., Antiviral Res. 82:1-11, 2009; read-out: EC50, inhibition of replication of polyoma virus SV40; cited from earlier work.

For `CC(C)C[C@H]1c2[nH]c3ccc(Cl)cc3c2CCN1C(=O)CCC1CCCCC1` [Compound 43, (S)-1-(6-chloro-1-isobutyl-3,4-dihydro-1H-pyrido[3,4-b]indol-2(9H)-yl)-3-cyclohexylpropan-1-one], the EC50 in the experiment on Ad7a is below 0.1 µg/mL; with Ad8 it was below 0.1 µg/mL; in the experiment on Ad37, below 0.1 µg/mL; with Ad4 it was 0.1 to 1 µg/mL (≈ 0.249 to 2.49 µM); with Ad5 [1] it was below 0.1 µM; with Ad3, 0.1 to 1 µg/mL (≈ 0.249 to 2.49 µM). Besides, the EC50 in the experiment on Ad5 [2] and with Ad19 was below 0.1 µg/mL throughout.
As to `CC(C)C[C@H]1c2[nH]c3ccc(Cl)cc3c2CCN1C(=O)C1CN(CCC(F)(F)F)C1` [Compound 47, (S)-(6-chloro-1-isobutyl-3,4-dihydro-1H-pyrido[3,4-b]indol-2(9H)-yl)(1-(3,3,3-trifluoropropyl)azetidin-3-yl)methanone], the EC50 in the experiment with Ad7a is 0.1 to 1 µg/mL (≈ 0.226 to 2.26 µM); in the experiment with Ad8, 0.1 to 1 µg/mL (≈ 0.226 to 2.26 µM); in the experiment on Ad37, 0.1 to 1 µg/mL (≈ 0.226 to 2.26 µM); in the experiment on Ad4, 0.1 to 1 µg/mL (≈ 0.226 to 2.26 µM); with Ad5 [1], 0.1 to 1 µM; in the experiment with Ad3 it was 0.1 to 1 µg/mL (≈ 0.226 to 2.26 µM). The EC50 in the experiment on Ad5 [2] and in the experiment with Ad19 was 0.1 to 1 µg/mL (≈ 0.226 to 2.26 µM) each time.
Take `CC(C)C[C@H]1c2[nH]c3ccc(Cl)cc3c2CCN1C(=O)CCN1CCN(CC(F)F)CC1` [Compound 73, (S)-1-(6-chloro-1-isobutyl-3,4-dihydro-1H-pyrido[3,4-b]indol-2(9H)-yl)-3-(4-(2,2-difluoroethyl)piperazin-1-yl)propan-1-one]: the EC50 was 0.1 to 1 µg/mL (≈ 0.214 to 2.14 µM) with Ad7a; 0.1 to 1 µg/mL (≈ 0.214 to 2.14 µM) in the experiment on Ad8; above 1 µg/mL in the experiment with Ad37; 0.1 to 1 µg/mL (≈ 0.214 to 2.14 µM) in the experiment on Ad4; 0.1 to 1 µM with Ad5 [1]; 0.1 to 1 µg/mL (≈ 0.214 to 2.14 µM) in the experiment with Ad3. Besides, the EC50 in the experiment with Ad5 [2] was 0.1 to 1 µg/mL (≈ 0.214 to 2.14 µM); in the experiment on Ad19, above 1 µg/mL.
Turning to `CC(C)C[C@H]1c2[nH]c3ccc(Cl)cc3c2CCN1C(=O)CNC1CC1` [Compound 91, (S)-1-(6-chloro-1-isobutyl-3,4-dihydro-1H-pyrido[3,4-b]indol-2(9H)-yl)-2-(cyclopropylamino)ethanone], the EC50 was 0.1 to 1 µg/mL (≈ 0.278 to 2.78 µM) in the experiment on Ad7a; 0.1 to 1 µg/mL (≈ 0.278 to 2.78 µM) in the experiment on Ad8; 0.1 to 1 µg/mL (≈ 0.278 to 2.78 µM) in the experiment on Ad37; 0.1 to 1 µg/mL (≈ 0.278 to 2.78 µM) in the experiment with Ad4; below 0.1 µM with Ad5 [1]; 0.1 to 1 µg/mL (≈ 0.278 to 2.78 µM) in the experiment on Ad3. For the same compound, the EC50 is below 0.1 µg/mL with Ad5 [2] and 0.1 to 1 µg/mL (≈ 0.278 to 2.78 µM) in the experiment with Ad19.
As to `CC(C)C[C@H]1c2[nH]c3ccc(Cl)cc3c2CCN1C(=O)C1CN(C2CC2)C1` [Compound 92, (S)-(6-chloro-1-isobutyl-3,4-dihydro-1H-pyrido[3,4-b]indol-2(9H)-yl)(1-cyclopropylazetidin-3-yl)methanone], the EC50 is 0.1 to 1 µg/mL (≈ 0.259 to 2.59 µM) in the experiment with Ad7a; above 1 µg/mL in the experiment on Ad8; 0.1 to 1 µg/mL (≈ 0.259 to 2.59 µM) in the experiment on Ad37; above 1 µg/mL in the experiment on Ad4; 0.1 to 1 µM in the experiment on Ad5 [1]; above 1 µg/mL in the experiment on Ad3. Further, the EC50 in the experiment on Ad5 [2] and in the experiment with Ad19 was 0.1 to 1 µg/mL (≈ 0.259 to 2.59 µM) throughout.
In the case of `CC(C)C[C@H]1c2[nH]c3ccc(Cl)cc3c2CCN1C(=O)C1CCN(C2CC2)CC1` [Compound 93, (S)-(6-chloro-1-isobutyl-3,4-dihydro-1H-pyrido[3,4-b]indol-2(9H)-yl)(1-cyclopropylpiperidin-4-yl)methanone], the EC50 with Ad7a was 0.1 to 1 µg/mL (≈ 0.242 to 2.42 µM); in the experiment with Ad8 it was 0.1 to 1 µg/mL (≈ 0.242 to 2.42 µM); in the experiment on Ad37, 0.1 to 1 µg/mL (≈ 0.242 to 2.42 µM); with Ad4, 0.1 to 1 µg/mL (≈ 0.242 to 2.42 µM); in the experiment on Ad5 [1], 0.1 to 1 µM; in the experiment with Ad3 it was 0.1 to 1 µg/mL (≈ 0.242 to 2.42 µM). In addition, the EC50 with Ad5 [2] and with Ad19 was 0.1 to 1 µg/mL (≈ 0.242 to 2.42 µM) throughout.
As for `CC(C)C[C@H]1c2[nH]c3ccc(Br)cc3c2CCN1C(=O)C1CCN(C2CC2)CC1` [Compound 97, (S)-(6-bromo-1-isobutyl-3,4-dihydro-1H-pyrido[3,4-b]indol-2(9H)-yl)(1-cyclopropylpiperidin-4-yl)methanone], the EC50 in the experiment with Ad7a is 0.1 to 1 µg/mL (≈ 0.218 to 2.18 µM); in the experiment on Ad8 it was below 0.1 µg/mL; in the experiment on Ad37, 0.1 to 1 µg/mL (≈ 0.218 to 2.18 µM); with Ad4, above 1 µg/mL; in the experiment on Ad5 [1] it was below 0.1 µM; in the experiment on Ad3, 0.1 to 1 µg/mL (≈ 0.218 to 2.18 µM). Moreover, the EC50 was below 0.1 µg/mL in the experiment on Ad5 [2] and 0.1 to 1 µg/mL (≈ 0.218 to 2.18 µM) in the experiment with Ad19.
On to `O=C(N[C@@H]1CCCc2c1[nH]c1ccc(Cl)cc21)c1ccccn1` [GSK-983], for which the EC50 (in [3]; with Epstein-Barr virus (EBV); in the experiment on AdV serotype 5 (Ad5); in the experiment on polyoma virus SV40) was 0.005 to 0.02 µM throughout.
